# Measurements published in patent publication US6426362B1, “Formulations of tocopherols and methods of making and using them” (Galileo Laboratories, Inc., priority 1999, dated 2002).
# Test system: Oxidatively competent cells
# Assay: Antimycin A-induced cell death in oxidatively competent cells, SYTOX assay after 4 hours
# Type: cell-based, rat-human hybrid (GCL1)
# Details: for cell death when tested individually: highest concentrations tested; for Cell Death (%): ± SD; for potency among the tocopherols tested: Table 1 comparison
# Excerpt: The GCL1 (WiF-B) liver cell line is a hybrid originating from the fusion of rat hepatoma cells (fao) and human fibroblasts (W138). Cassio et al. (1991) J. Cell Biol. 115:1397-1408; Shanks et al. (1994) J. Cell Science 107:813-825. […] Ihrke et al. 1993, J. Cell Biol. 123:1761-1775. At greater than 80% confluence, more than 80% of the cells participate in forming one or more phaselucent, spherical structures that are located between cells, termed bile canicular-like spaces. In contrast to the majority of cell lines maintained in culture which are fermentative, GCL1 cells, when at their maximal density and polarity, are highly oxidative (i.e., they can be readily killed by inhibitors of oxidative phosphorylation or electron transport uncouplers). […] These cells are amenable to use in high throughput screening (HTS) technology.
# Energetically competent cells are seeded onto 96-well plates at 1×10^3/well or 2.5×10^3/well as passage 15. The cells are grown in DMEM with 10% FBS and 1.5 g/L sodium bicarbonate for 24 or 48 hours to reach 85% confluence. The cells are washed once with HBSS and then 100 μl of HBSS containing different concentration of AA (Sigma Chemical Co., Cat # A 8674) is added to the cells. AA is dissolved in DMSO to make a stock solution of 50 mM, then diluted with HBSS to 100, 50, 25, 12.5, 6.25, 3.125, and 1.56 μM for dose-response curves. The cells, with or without AA, are incubated at 37° C. in a 5% CO2 humidified incubator for 1, 3, and 5 hours. The concentration of AA is chosen to induce 75% or 100% cell death as a screening dose to test the effect of tocopherols to protect against AA-induced cell toxicity. The concentration of agents used for screening will be dependent upon the agents. Certain control groups contain 100 μl of HBSS only.
# SYTOX Green nucleic acid stain is a high-affinity nucleic acid stain that easily penetrates cells with a compromised plasma membrane but will not cross the membrane of live cells. The nucleic acids of dead cells fluoresce bright green at 524 nm when excited with the 488 nm spectral source or with any other 450-500 nm source. […] In the cell viability assay chemical ischemia is created in cells that are incubated with the SYTOX dye. The compound antimycin is used to simulate ischemia at the same time as stimulating the cells with forskolin. […] The assay is performed on cells grown in 96-well format allowing high throughput screening of compounds.
# Materials: (i)SYTOX Green dye, supplied as a 5 mM solution in DMSO (Molecular Probes # S-7020) is stored at −20° C. until use. ii.) Antimycin-A: (Sigma # A-8674) dissolve […] in 10 ml of DMSO to make a 10 mM stock solution. Aliquot at 100 μl. This 10 mM stock is then diluted to 1 mM with DMSO and aliquoted at 25 μL. Both the 10 mM and the 1 mM are stored at −20° C. until use. (iii) Forskolin (Sigma # F-6886), dissolve 50 mg aliquot in 1.62 ml of DMSO to make a 100 mM stock solution. Aliquot at 100 μl and store at −20° C. until use. iv.) HBSS-SYTOX-FORSKOLIN-ANTIMYCIN (H-S-F-A) solution: H-S-F-A solution is made up fresh prior to each assay in sterile 175 ml or 225 ml Falcon bottles. The working concentrations for the assay are 3 μM SYTOX, 50 μM Forskolin and 30 μM Antimycin.
# Cells are grown in 96-well black plates (with or without clear bottoms) at a density of 1000 cells per well for 24 hours. The necessary number of 96-well plates containing the specific cell type are obtained and placed in the laminar flow safety cabinet. A sterile microtiter basin is filled with the appropriate volume of pre-warmed 1×HBSS. Using aseptic technique and an 8-channel aspirator, the media is carefully removed from the cells and replaced with 200 μl of 1×HBSS. This is done as quickly as possible to prevent the cells drying out. The plates are then placed in the humidified 37° C. incubators of the Biomek 2000 Side Loader.
# [1] = dose 1.2 μg/ml, with antimycin A, 4 hours, SYTOX
# [2] = dose 3.7 μg/ml, with antimycin A, 4 hours, SYTOX
# [3] = dose 11 μg/ml, with antimycin A, 4 hours, SYTOX
# [4] = dose 33 μg/ml, with antimycin A, 4 hours, SYTOX
# [5] = dose 100 μg/ml, with antimycin A, 4 hours, SYTOX
# [6] = salts of (+)alpha-tocopherol, dose of tocopherol 1.2 μg/ml
# [7] = salts of (+)alpha-tocopherol, dose of tocopherol 3.7 μg/ml
# [8] = salts of (+)alpha-tocopherol, dose of tocopherol 11 μg/ml
# [9] = salts of (+)alpha-tocopherol, dose of tocopherol 33 μg/ml
# [10] = salts of (+)alpha-tocopherol, dose of tocopherol 100 μg/ml
SMILES,Cell Death (%) [1],Cell Death (%) [2],Cell Death (%) [3],Cell Death (%) [4],Cell Death (%) [5],Cell Death (%) [6],Cell Death (%) [7],Cell Death (%) [8],Cell Death (%) [9],Cell Death (%) [10],further results
"Cc1c(C)c2c(c(C)c1O)CCC(C)(CCCC(C)CCCC(C)CCCC(C)C)O2 (racemic) [(+/−) alpha-tocopherol, 2,5,7,8-tetramethyl-2-(4′,8′,12′-trimethyltridecyl)-6-chromanol]",77.2% ± 0.8,73.5% ± 1.2,52.4% ± 3.4,44.2% ± 1.2,19.7% ± 2.9,,,,,,"protection against stress-induced cell death ((+/−) alpha-tocopherol alone at 10 μg/ml): about 15%; cell death (Example 7, alone at 10 μg/ml (highest concentration tested)): 53%; cell death (Example 8, tocopherol alone at 10 μg/ml): 79.4%; cell death when tested individually (daidzein experiment): over half of the cells died"
"Cc1c(C)c2c(c(C)c1O)CC[C@@](C)(CCC[C@H](C)CCC[C@H](C)CCCC(C)C)O2 (relative stereo) [(+) alpha-tocopherol, [2R-2R*(4R*,8R*)]-3,4-dihydro-2,5,7,8-tetramethyl-2-(4,8,12-trimethyltridecyl)-2H-1-benzopyran-6-ol]",77.0% ± 2.5,70.13% ± 5.8,64.4% ± 3.1,49.8% ± 6.0,33.78% ± 1.5,,,,,,
"Cc1cc(O)cc2c1O[C@](C)(CCC[C@H](C)CCC[C@H](C)CCCC(C)C)CC2 (relative stereo) [(+) delta-tocopherol, [2R-[2R*(4R*,8R*)]]-3,4-dihydro-2,8-dimethyl-2-(4,8,12-trimethyltridecyl)-2H-1-benzo-pyran-6-ol]",61.3% ± 4.2,39.3% ± 3.8,21.3% ± 1.0,−8.19% ± 1.4,−68.19% ±,,,,,,potency among the tocopherols tested: most potent
"Cc1c(O)cc2c(c1C)OC(C)(CCCC(C)CCCC(C)CCCC(C)C)CC2 (centres unmarked) [+ gamma-tocopherol, 3,4-dihydro-2,7,8-trimethyl-2-(4,8,12-trimethyltridecyl)-2H-1-benzyopyran-6-ol]",76.8 ± 3.1%,69.3 ± 3.3%,37.2 ± 0.7%,16.7 ± 1.9%,−8.5 ± 3.3%,,,,,,"cell death (Example 7, alone at 1 μg/ml (highest concentration tested)): 62.5%; potency among the tocopherols tested: most potent; protection against stress-induced cell death (gamma-tocopherol alone, 0.03-0.3 μg/ml): not protective by itself"
CC(=O)Oc1c(C)c(C)c2c(c1C)CCC(C)(CCC[C@H](C)CCC[C@H](C)CCCC(C)C)O2 (stereo partly drawn) [alpha-tocopherol acetate],,,,,,73.2% ± 3.3,77.5% ± 4.9,71.1% ± 1.5,64.8% ± 4.9,38.% ± 2.3,"Cell Death (%) (salts of (+)alpha-tocopherol, dose of tocopherol 100 μg/ml, listed as acetate salt of alpha-tocopherol): 38%"
Cc1c(C)c2c(c(C)c1OC(=O)c1cccnc1)CC[C@@](C)(CCC[C@H](C)CCC[C@H](C)CCCC(C)C)O2 [alpha-tocopherol nicotinate],,,,,,81.0 ± 2.5%,76.8 ± 7.0%,74.0 ± 2.4%,77.5 ± 3.0%,67.5 ± 2.8%,
Cc1c(C)c2c(c(C)c1OP(=O)(O)O)CC[C@@](C)(CCC[C@H](C)CCC[C@H](C)CCCC(C)C)O2 [alpha-tocopherol phosphate],,,,,,79.7 ± 8.7%,76.5 ± 4.2%,83.9 ± 4.4%,47.2 ± 10.8%,43.2 ± 17.4%,
Cc1c(C)c2c(c(C)c1OC(=O)CCC(=O)O)CC[C@@](C)(CCC[C@H](C)CCC[C@H](C)CCCC(C)C)O2 [alpha-tocopherol succinate],,,,,,85.8 ± 1.4%,83.9 ± 0.3%,85.5 ± 2.5%,90.4 ± 7.4%,98.7 ± 6.0%,
"Cc1c(C)c2c(c(C)c1O)CCC(C)(CCCC(C)CCCC(C)CCCC(C)C)O2 (stereo not drawn) [alpha-tocopherol, 2,5,7,8-tetramethyl-2-(4′,8′,12′-trimethyltridecyl)-6-chromanol]",,,,,,,,,,,cell death when tested individually (biochanin A experiment): about half of the cells died
"COc1ccc(-c2coc3cc(O)cc(O)c3c2=O)cc1 [biochanin A, 5,7-dihydroxy-4′-methoxyiso-flavone]",,,,,,,,,,,cell death when tested individually (biochanin A experiment): about half of the cells died
"O=c1c(-c2ccc(O)cc2)coc2cc(O)ccc12 [daidzein, 7-hydroxy-3-(4-hydroxyphenyl)-4H-1-benzopyran-4-one]",,,,,,,,,,,cell death when tested individually (daidzein experiment): over half of the cells died
"COc1ccc(-c2cc(=O)c3c(O)cc(O[C@@H]4O[C@H](CO[C@@H]5O[C@@H](C)[C@H](O)[C@@H](O)[C@H]5O)[C@@H](O)[C@H](O)[C@H]4O)cc3o2)cc1O [diosmin, reference compound]",,,,,,,,,,,"protection against stress-induced cell death (diosmin alone at 100 μM): no protection; protection against stress-induced cell death (diosmin alone, 3.3-100 μM): not protective by itself; protection against stress-induced cell death (diosmin alone, 33-100 μM): not effective"
"COc1ccc([C@@H]2CC(=O)c3c(O)cc(O)cc3O2)cc1O [hesperetin, (S)-2,3-dihydro-5,7-dihydroxy-2-(3-hydroxy-4-methoxyphenyl)-4H-1-benzopyran-4-one]",,,,,,,,,,,"efficacy when tested separately (2 and 50 μM heperitin, 0.22 and 3.6 μg/ml tocopherol, cell death four hours later): generally ineffective"
